Structures can show the parent of a compound that is named as a salt.
Legend:
[1] = test system: PDE-5A; assay: Table 4 PDE-5A (% of control); assay type: cell-based; settings: control group = 100 (%)
[2] = test system: ROCKII; assay: Table 4 ROCKII (% of control); assay type: cell-based; settings: control group = 100 (%)
[3] = test system: mice fed with HFD; assay: HFD-fed mice, 8 weeks, gavage: serum/liver lipids, body weight, food intake; assay type: in vivo; settings: HFD mice, 8 weeks, 5 mg/kg
Method: In the 8 week experiment, C57BL/6J male mice (21-22 g), after fasting, were fed a HFD as a model of hyperlipidemia for 8 weeks. During the 2 month experiments, mice fasted for one night before the experiment was changed from a standard diet (STD) to a HFD and then the mice were randomly divided into 5 groups, including 2 control and 3 treatment groups. Six mice were used in each group. […] Liver from the protection group supplemented with KMUP-1 HCl (1 mg/kg/day) were used to determine the HMG CoA reductase expression.
Within 2 months, the 3 day food intake average for each animal was measured. The weight gain and plasma lipid levels of each group were determined and compared to the non-treatment control group. Mouse blood was collected during the daytime by cardiac puncture followed by centrifugation at 90 g (Benchtop Centrifuge, U.S.A.) to separate the serum, and frozen at −80° C., for biochemical analysis using a Hitachi Clinical Analyzer 7070 (Hitachi High-Technologies Co. Tokyo, Japan). Agents used in the assays were Obtained from Merck & Co. (Kenilworth, N.J., U.S.A.). Triglyceride (TG), total cholesterol, HDL cholesterol and LDL cholesterol in mouse serum were measured by methods used in the clinic. To measure the hepatic TG, isolated liver were cut into small chips.

[4] = test system: eNOS; assay: Table 4 eNOS (% of control); assay type: cell-based; settings: control group = 100 (%)
[5] = test system: ROCK II; assay: ROCK II expression in HepG2 cells; assay type: cell-based; settings: HepG2; for RhoA/ROCK II expression: exogenous GGPP or FPP alone
Method: (§1) HepG2 cells were treated with various concentrations of drugs for 24 hours. Reactions were terminated by washing twice with cold PBS, and the cells were then harvested, Proteins in the whole-cell lysate were homogenized in an ice-cold lysis buffer and a protease inhibitor (Sigma-Aldrich, St. Louis, Mo., U.S.A.). The homogenate was centrifuged at 90, 000 g for 15 minutes at 4° C., and supernatant was recovered as the total cellular protein. Cytosolic and membrane fractions of HepG2 cells were prepared using a. CNM (Cytosol Nuclear Membrane) compartment protein extraction kit (BioChain Institute Inc., Hayward, Calif., U.S.A.) according to the manufacturer's instructions. All of the fractionated protein solutions were stored at -80° C. until analysis. To measure the expression levels of proteins by drugs, the total cell protein was extracted after incubation with treatments for 24 hours and then Western blotting analysis was performed as described previously.

[6] = test system: PPARγ; assay: PPARγ expression in HepG2 cells; assay type: cell-based; settings: HepG2; for expression of PPARγ: FPP or GGPP (10 μM) alone
Method: as §1, with “−80°” for “-80°”

[7] = test system: ABCA1; assay: ABCA1 expression in HepG2 cells; assay type: cell-based; settings: HepG2; for expression of ABCA1: FPP or GGPP (10 μM) alone
Method: as §1, with “−80°” for “-80°”

[8] = test system: Rho-kinase; assay: Table 3 Rho-kinase (% of control); assay type: cell-based; settings: 10 μM; control group = 100 (%)
[9] = test system: HMG CoA reductase; assay: HMG CoA reductase expression in HepG2 cells (Western blotting); assay type: cell-based; settings: HepG2, mevalonate 60, 80, 100 μM
Method: The HepG2 hepatoma cell line was purchased from the American Type Culture Collection (ATCC; Manassas, Va., U.S.A.). Cells were cultured in DMEM. The culture media was supplemented with 5% heat-Inactivated FBS, penicillin (100 U/mL) and streptomycin (100 μg/mL). Cells were grown in a humidified atmosphere containing 5% CO2 at 37° C., in which the oxygen tension in the incubator was held at 140 mmHg (20% O2, v/v; normoxic conditions).
as §1, with “−80°” for “-80°”

[10] = test system: PPAR-γ; assay: Table 3 PPAR-γ (% of control); assay type: cell-based; settings: 10 μM; control group = 100 (%)
[11] = test system: eNOS; assay: Table 3 eNOS (% of control); assay type: cell-based; settings: 10 μM; control group = 100 (%)
[12] = test system: p-HSL; assay: Table 3 p-HSL (% of control); assay type: cell-based; settings: 10 μM; control group = 100 (%)
[13] = simvastatin, KMUP-1, Y27632 10^−5M, C3 exoenzyme

Compound: COc1ccccc1N1CCN(CCn2cnc3c2c(=O)n(C)c(=O)n3C)CC1 [KMUP-2 HCl]
- PDE-5A [1]: 68.8 ± 5.3%
- ROCKII [2]: 40.8 ± 3.7%

Compound: CCC(C)(C)C(=O)O[C@H]1C[C@@H](C)C=C2C=C[C@H](C)[C@H](CC[C@@H]3C[C@@H](O)CC(=O)O3)[C@H]21 [simvastatin, reference compound]
- HDL cholesterol [3]: 103.2 ± 2.5 mg/dL
- LDL cholesterol [3]: 15.3 ± 1.3 mg/dL
- TG in serum [3]: 82.7 ± 6.3 mg/dL
- TG of liver [3]: 34.5 ± 2.** mg/dl
- Tot. chol. (total cholesterol) [3]: 133.7 ± 4.3 mg/dL
- final BW (Body weight) [3]: 23.9 ± 0.9 g

Compound: Cl.Cn1c(=O)c2c(ncn2CCN2CCN(c3ccc([N+](=O)[O-])cc3)CC2)n(C)c1=O [KMUP-3 HCl, 7-[2-[4-(4-nitrobenzene)piperazinyl]ethyl]-1,3-dimethyl xanthine HCl complex]
- PDE-5A [1]: 63.6 ± 5.2%
- ROCKII [2]: 44.5 ± 2.9%
- eNOS [4]: 148.31 ± 7.5%

Compound: Nc1nc2c(nc(Sc3ccc(Cl)cc3)n2[C@@H]2O[C@@H]3CO[P@@](=O)(S)O[C@H]3[C@H]2O)c(=O)[nH]1 [Rp-8-pCPT-cGMPS, 8-(p-chloro-phenylthio)guanosine-3,5-monophosphorothioate]
- ROCK II expression ([5]; 10 μM cGMP antagonist): increased

Compound: CC(C)=CCC/C(C)=C/CC/C(C)=C/COP(=O)(O)OP(=O)(O)O [FPP, farnesyl pyrophosphate, reference compound]
- expression of PPARγ [6]: suppressed
- RhoA/ROCK II expression [5]: increased
- expression of ABCA1 [7]: suppressed

Compound: CC(C)=CCC/C(C)=C/CC/C(C)=C/CC/C(C)=C/COP(=O)(O)OP(=O)(O)O [GGPP, geranylgeranyl pyrophosphate, reference compound]
- expression of PPARγ [6]: suppressed
- RhoA/ROCK II expression [5]: increased
- expression of ABCA1 [7]: suppressed

Compound: Cn1c(=O)c2c(ncn2CCN2CCN(c3ccccc3[N+](=O)[O-])CC2)n(C)c1=O [KMUP-4 HCl]
- PDE-5A [1]: 73.4 ± 3.4%
- ROCKII [2]: 37.6 ± 2.8%
- eNOS [4]: 135.24 ± 7.5%

Compound: C[C@@H](N)[C@H]1CC[C@H](C(=O)Nc2ccncc2)CC1 [Y27632, reference compound]
- PPARγ expression (FIG. 24C) [6, 13]: increased
- ROCK II expression ([5]; C3 exoenzyme 5 μg/ml, Y27632 10 μM): reduced
- ABCA1 expression (FIG. 24D) [7, 13]: increased

Compound: COc1ccccc1N1CCN(CCn2cnc3c2c(=O)n(C)c(=O)n3C)CC1 [KMUP-2, 7-[2-[4-(2-methoxybenzene)piperazinyl]ethyl]-1,3-dimethylxanthine]
- Rho-kinase [8]: 81.9 ± 8.2%

Compound: CC(O)(CCO)CC(=O)O (stereo not shown) [mevalonate, reference compound]
- HMG CoA reductase expression [9]: concentration-dependently reduced

Compound: Cn1c(=O)c2c(ncn2CCN2CCN(c3ccccc3[N+](=O)[O-])CC2)n(C)c1=O [KMUP-3, 7-[2-[4-(2-nitrobenzene)piperazinyl]ethyl]-1,3-dimethylxanthine]
- Rho-kinase [8]: 79.4 ± 6.9%
- PPAR-γ [10]: 140.8 ± 15.7%
- eNOS [11]: 131.5 ± 13.7%
- p-HSL [12]: 138.2 ± 14.4%

Compound: Cn1c(=O)c2c(ncn2CCN2CCN(c3ccccc3[N+](=O)[O-])CC2)n(C)c1=O [KMUP-4, 7-[2-[4-(2-nitrobenzene)piperazinyl]ethyl]-1,3-dimethylxanthine]
- Rho-kinase [8]: 83.7 ± 7.5%
- PPAR-γ [10]: 143.7 ± 11.3%
- eNOS [11]: 125.6 ± 13.6%
- p-HSL [12]: 136.5 ± 12.6%
